Test results published in patent US5079241A, “Cephalosporin derivatives and pharmaceutical compositions in which they are present” (Sanofi, priority 1987, dated 1992).
Values after ≈ are worked out from the molar mass of the structure shown.

Experiments:
[1] = pharmacokinetic behavior in baboons, 20 mg/kg (Tables 5 and 7); type: in vivo; conditions: for Plasma concentration at 24 h / Plasma concentration at 48 h / Cmax / half-life / AUC(0-inf) / dose excreted at 6 h: 20 mg/kg (Table 7); for Cmax / half-life / AUC(0-inf) / concentration at 0.08 h / concentration at 0.16 h / concentration at 0.25 h / concentration at 0.33 h / concentration at 0.5 h / concentration at 0.75 h / concentration at 1 h / concentration at 1.5 h / concentration at 2 h / concentration at 3 h / concentration at 4 h / concentration at 5 h / concentration at 6 h / concentration at 24 h / concentration at 48 h / dose excreted at 6 h: baboon; for Cmax / half-life / AUC(0-inf) / concentration at 0.08 h / concentration at 0.16 h / concentration at 0.25 h / concentration at 0.33 h / concentration at 0.5 h / concentration at 0.75 h / concentration at 1 h / concentration at 1.5 h / concentration at 2 h / concentration at 3 h / concentration at 4 h / concentration at 5 h / concentration at 6 h / concentration at 24 h / concentration at 48 h: plasma; for Cmax: read-out: Maximum plasma concentration; for half-life: read-out: t1/2 β (converted); for AUC(0-inf): trapezium method, read-out: AUC 0-.infin.; for concentration at 0.08 h / concentration at 0.16 h / concentration at 0.25 h / concentration at 0.33 h / concentration at 0.5 h / concentration at 0.75 h / concentration at 1 h / concentration at 1.5 h / concentration at 2 h / concentration at 3 h / concentration at 4 h / concentration at 5 h / concentration at 6 h / concentration at 24 h / concentration at 48 h: 20 mg/kg; for dose excreted at 6 h: urine, read-out: Excretion in urine at 6 h
Method: Furthermore, the pharmacokinetic behavior of the products according to the invention was studied in baboons after administration at a dose of 20 mg/kg by intramuscular injection or intravenous injection.
Blood samples taken at various times after administration are used to determine the plasma concentration of the product studied by microbiological assay.
It is thus possible to construct the curve showing the plasma concentration as a function of time, and to determine different pharmacokinetic parameters of the compound studied:
the elimination half-life (t1/2 β) is calculated by the formula [formula] in which β represents the elimination gradient or slope;
the area under the curve (AUC) is determined by the trapezium method.
The plasma concentrations obtained with various products of the invention are collated in Tables 4 and 5. They are expressed in μg/ml.

[2] = system: Pseudomonas aeruginosa NCTC 8203; experiment: bacteriostatic action in vitro by the dilution method (MIC); type: cell-based; conditions: NCTC8203, read-out: minimum inhibitory concentrations (MIC)
Method: (§1) The bacteriostatic action was determined in vitro by the dilution method. The study was carried out on both Gram-positive strains and Gram-negative strains.
(§2) The results for various products according to the invention, expressed as minimum inhibitory concentrations (MIC - μg/ml), are collated in Table 3.

Providencia 155 = experiment: as above; type: cell-based; conditions: read-out: minimum inhibitory concentrations (MIC)
Method: as §1, §2

[3] = system: Escherichia coli C1/Col E1::Tn3; experiment: as above; type: cell-based; conditions: read-out: minimum inhibitory concentrations (MIC)
Method: as §1, §2

Staph. aureus Smith = experiment: as above; type: cell-based; conditions: Staphylococcus aureus, read-out: minimum inhibitory concentrations (MIC)
Method: as §1, §2

[4] = system: Escherichia coli SOL RL 90; experiment: as above; type: cell-based; conditions: SOLRL90, read-out: minimum inhibitory concentrations (MIC)
Method: as §1, §2

[5] = system: Klebsiella pneumoniae R30; experiment: as above; type: cell-based; conditions: read-out: minimum inhibitory concentrations (MIC)
Method: as §1, §2

[6] = system: Proteus vulgaris GN 76/C-1; experiment: as above; type: cell-based; conditions: GN76, read-out: minimum inhibitory concentrations (MIC)
Method: as §1, §2

Row | SMILES | Plasma concentration at 24 h [1] [µg/mL] | Plasma concentration at 48 h [1] [µg/mL] | Cmax [1] [µg/mL] | half-life [1] [min] | AUC(0-inf) [1] [µg·h/mL] | concentration at 0.08 h [1] [µg/mL] | concentration at 0.16 h [1] [µg/mL] | concentration at 0.25 h [1] [µg/mL] | concentration at 0.33 h [1] [µg/mL] | concentration at 0.5 h [1] [µg/mL] | concentration at 0.75 h [1] [µg/mL] | concentration at 1 h [1] [µg/mL] | concentration at 1.5 h [1] [µg/mL] | MIC [2] [µg/mL] | MIC (Providencia 155) [µg/mL] | MIC [3] [µg/mL] | MIC (Staph. aureus Smith) [µg/mL] | MIC [4] [µg/mL] | MIC [5] [µg/mL] | MIC [6] [µg/mL] | other results
1 | CC(C)(ON=C(C(=O)NC1C(=O)N2C(C(=O)O)=C(COC(=O)c3ccc(NS(=O)(=O)CCN)cc3)CSC12)c1csc(N)n1)C(=O)O (centres unmarked) [C, reference compound] | 7.7 | 0.6 | 233 | 378 | 1210 | 233 | 213 | 190 | 170 | 124 | 121 | 120 | 112 |  |  |  |  |  |  |  | concentration at 2 h [1]: 98.4 µg/mL; concentration at 3 h [1]: 72.9 µg/mL; concentration at 4 h [1]: 68.7 µg/mL; concentration at 5 h [1]: 62.1 µg/mL; concentration at 6 h [1]: 54.4 µg/mL; concentration at 24 h ([1]; 24 hours): 7700 ng/mL; concentration at 48 h ([1]; 48 hours): 600 ng/mL; dose excreted at 6 h [1]: 18%
2 | CO/N=C(\C(=O)NC1C(=O)N2C(C(=O)O)=C(COC(=O)c3ccc(NC(=O)CN)c(O)c3)CSC12)c1csc(N)n1 (centres unmarked) [SR 43852] |  |  |  |  |  |  |  |  |  |  |  |  |  | 2 (≈ 3.3 µM) | 2 (≈ 3.3 µM) | 0.06 (≈ 0.0991 µM) | 0.25 (≈ 0.413 µM) | 0.25 (≈ 0.413 µM) | 4 (≈ 6.6 µM) | 16 (≈ 26.4 µM) | 
3 | CO/N=C(\C(=O)NC1C(=O)N2C(C(=O)O)=C(COC(=O)c3ccc(NC(=O)CCN)c(O)c3)CSC12)c1csc(N)n1 (centres unmarked) [SR 43853] |  |  |  |  |  |  |  |  |  |  |  |  |  | 2 (≈ 3.23 µM) | 1 (≈ 1.61 µM) | 0.06 (≈ 0.0968 µM) | 0.25 (≈ 0.403 µM) | 0.25 (≈ 0.403 µM) | 4 (≈ 6.46 µM) | 16 (≈ 25.8 µM) | 
4 | CO/N=C(\C(=O)NC1C(=O)N2C(C(=O)O)=C(COC(=O)c3ccc(NC(=O)C(N)CCN)c(O)c3)CSC12)c1csc(N)n1 (centres unmarked) [SR 44218] |  |  |  |  |  |  |  |  |  |  |  |  |  | 4 (≈ 6.17 µM) | 2 (≈ 3.08 µM) | 0.25 (≈ 0.385 µM) | 0.5 (≈ 0.771 µM) | 0.5 (≈ 0.771 µM) | 8 (≈ 12.3 µM) | 16 (≈ 24.7 µM) | 
5 | CO/N=C(\C(=O)NC1C(=O)N2C(C(=O)O)=C(COC(=O)c3ccc(NC(=O)[C@@H](N)CCCN)c(O)c3)CSC12)c1csc(N)n1 (some centres unmarked) [SR 44219] |  |  |  |  |  |  |  |  |  |  |  |  |  | 1 (≈ 1.51 µM) | 1 (≈ 1.51 µM) | 0.12 (≈ 0.181 µM) | 0.5 (≈ 0.754 µM) | 0.12 (≈ 0.181 µM) | 4 (≈ 6.04 µM) | 16 (≈ 24.1 µM) | 
6 | CO/N=C(\C(=O)NC1C(=O)N2C(C(=O)O)=C(COC(=O)c3ccc(NS(=O)(=O)CCN)c(O)c3)CSC12)c1csc(N)n1 (stereo not drawn) [SR 44337, 7-[2-(2-Aminothiazol-4-yl)-2-methoxyiminoacetamido]-3-[[4-(2-aminoethylsulfonamido)-3-hydroxybenzoyl]oxymethyl]-3-cephem-4-carboxylic acid bis-trifluoroacetate, syn isomer] | 39.0 | 14.4 | 266 | 834 | 3320 | 266 | 251 | 238 | 206 | 194 | 190 | 182 | 164 | 2 (≈ 3.05 µM) | 1 (≈ 1.53 µM) | 0.06 (≈ 0.0915 µM) | 0.25 (≈ 0.381 µM) | 0.5 (≈ 0.763 µM) | 4 (≈ 6.1 µM) | 1 (≈ 1.53 µM) | increase in area under the curve relative to reference product C [1]: 2.7 fold; plasma concentration at 24 hours, times higher than reference product C ([1]; 24 hours): 5 times; plasma concentration at 48 hours, times higher than reference product C ([1]; 48 hours): 24 times; concentration at 2 h [1]: 153 µg/mL; concentration at 3 h [1]: 152 µg/mL; concentration at 4 h [1]: 147 µg/mL; concentration at 5 h [1]: 141 µg/mL; concentration at 6 h [1]: 120 µg/mL; concentration at 24 h ([1]; 24 hours): 39000 ng/mL; concentration at 48 h ([1]; 48 hours): 14400 ng/mL; dose excreted at 6 h [1]: 14%
